The text below walks through data of patent US12077503B2, “Substituted cyclic amides and their use as herbicides” (FMC CORPORATION, priority 2015, dated 2024).

Where two headings read alike, the source gives them in different places.

What all share (type): in vivo
Experiment [1] has as its system Kochia (Kochia scoparia). Put plainly: Test A postemergence. The following applies: Bassia scoparia, post-emergence, 240 h; for pest or weed control at 125 g/ha: 125 g ai/ha; for pest or weed control at 500 g/ha: 500 g ai/ha. Put shortly:
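Seeded soil received test chemicals as a preemergence directed spray, and seedlings at one to two leaves, 2–10 cm tall, received them postemergence, in a non-phytotoxic, surfactant-containing solvent mixture. Pots were held in a greenhouse for approximately 10 d, then rated for injury from 0, no effect, to 100, complete control.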

Experiment [2] relates to barnyardgrass (Echinochloa crus-galli). Put plainly: Test B flooded paddy test. The following applies: Echinochloa crus-galli, 250 g ai/ha, Flood, read-out: Barnyardgrass plant response rating. The method in brief:
(§1)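 Greenhouse paddy pots with 2-leaf stage plants received compound by direct addition to floodwater 3 cm deep, kept at that level. Scored visually at 13–15 d versus controls (0 no effect; 100 complete control).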

The test system of experiment [3] is ducksalad (Heteranthera limosa). Put plainly: Test B flooded paddy test. As to conditions: Heteranthera limosa, 250 g ai/ha, Flood, read-out: Ducksalad plant response rating. The method in brief: as §1
Experiment [4] concerns rice (Oryra sativa). Put plainly: Test B flooded paddy test. As to conditions: Oryza sativa, 250 g ai/ha, Flood, read-out: Rice plant response rating. The method in brief: as §1
Experiment [5] has as its system sedge, umbrella (small-flower umbrella sedge, Cyperus difformis). Put plainly: Test B flooded paddy test. The following applies: Cyperus difformis, 250 g ai/ha, Flood, read-out: Sedge, Umbrella plant response rating. Put shortly:
as §1

[6] abbreviates: postemergence, visual injury on 0 to 100 scale (0 no effect, 100 complete control), approx. 10 d, read-out: Kochia plant response rating.
Setting [7] is: postemergence, 0 to 100 scale, 0 is no effect, 100 is complete control, read-out: Kochia plant response rating.
Where [8] appears, read: 0 to 100 scale where 0 is no effect and 100 is complete control.
[9] abbreviates: postemergence, visual injury rating after approximately 10 d, read-out: Kochia plant response rating (0 to 100 scale, 0 no effect, 100 complete control).
The mark [10] stands for this setting: scale of 0 to 100 where 0 is no effect and 100 is complete control.
Setting [11] is: Postemergence, visual injury after approximately 10 d, 0 to 100 scale where 0 is no effect and 100 is complete control, read-out: Plant response rating, Kochia.
Where [12] appears, read: postemergence, visual injury, 0 to 100 scale (0 no effect, 100 complete control), approx. 10 d, read-out: Plant response rating, Kochia.

In the case of `CC(C)Oc1ccc([C@H]2CNC(=O)[C@@H]2C(=O)Nc2cccc(F)c2F)cc1` [Compound 1136], the pest or weed control at 125 g/ha in experiment [1] (setting [6]) was determined as 0%. The pest or weed control at 500 g/ha in experiment [1] (setting [7]) was determined as 0%. In addition, the pest or weed control at 250 g/ha was 0% in experiment [2] (setting [8]), 85% in experiment [3] (setting [8]), 0% in experiment [4] (setting [8]) and 0% in experiment [5] (setting [8]).
As for `Cc1cc(F)cc([C@H]2CN(C)C(=O)[C@@H]2C(=O)Nc2cccc(F)c2F)c1` [Compound 849], the pest or weed control at 125 g/ha in experiment [1] (setting [9]) came out at 0%. For the same molecule, the pest or weed control at 250 g/ha stood at 75% in experiment [2] (setting [10]), 100% in experiment [3] (setting [10]), 15% in experiment [4] (setting [10]) and 0% in experiment [5] (setting [10]).
With `CC(C)c1cccc([C@H]2CN(C)C(=O)[C@@H]2C(=O)Nc2ccccc2F)c1` [Compound 819], in experiment [1] (setting [9]), the pest or weed control at 125 g/ha worked out at 30%. Moreover, the pest or weed control at 250 g/ha in experiment [2] (setting [10]) amounted to 65%; in experiment [3] (setting [10]), 100%; in experiment [4] (setting [10]) it was 0%; in experiment [5] (setting [10]), 0%.
In the case of `O=C1NC[C@H](c2cc(C(F)F)cs2)[C@H]1C(=O)Nc1ccccc1F` [Compound 1116], the pest or weed control at 125 g/ha in experiment [1] (setting [6]) came to 0%. In addition, in experiment [1] (setting [7]), the pest or weed control at 500 g/ha is 30%. In addition, the pest or weed control at 250 g/ha in experiment [2] (setting [8]) was 50%; in experiment [3] (setting [8]), 100%; in experiment [4] (setting [8]), 20%; in experiment [5] (setting [8]), 75%.
`O=C1NC[C@H](c2ccc3c(c2)OCO3)[C@H]1C(=O)Nc1ccc(F)cc1F` [Compound 1026]: the pest or weed control at 125 g/ha in experiment [1] (setting [11]) is 0%. The pest or weed control at 500 g/ha in experiment [1] (setting [12]) is 0%. For the same molecule, the pest or weed control at 250 g/ha is 0% in experiment [2] (setting [8]), 100% in experiment [3] (setting [8]), 20% in experiment [4] (setting [8]) and 0% in experiment [5] (setting [8]).
Consider `CC(=O)Oc1ccc(F)c(NC(=O)[C@H]2C(=O)N(C)C[C@@H]2c2cc(F)cc(F)c2)c1` [Compound 1019], for which the pest or weed control at 125 g/ha in experiment [1] (setting [11]) came out at 0%. In addition, in experiment [1] (setting [12]), the pest or weed control at 500 g/ha is 0%. The pest or weed control at 250 g/ha in experiment [2] (setting [8]), in experiment [3] (setting [8]), in experiment [4] (setting [8]) and in experiment [5] (setting [8]) was 0% throughout.
With `O=C(Nc1ccccc1F)[C@H]1C(=O)N(C2CC2)CC[C@@H]1c1ccccc1` [Compound 1031], in experiment [1] (setting [6]), the pest or weed control at 125 g/ha was found to be 0%. Besides, the pest or weed control at 500 g/ha in experiment [1] (setting [12]) was determined as 0%. Further, the pest or weed control at 250 g/ha in experiment [2] (setting [8]), in experiment [3] (setting [8]), in experiment [4] (setting [8]) and in experiment [5] (setting [8]) was 0% throughout.
As for `Cc1ccc([C@H]2CNC(=O)[C@@H]2C(=O)Nc2cccc(F)c2C)cc1C` [Compound 1035], the pest or weed control at 125 g/ha in experiment [1] (setting [6]) was 0%. Besides, the pest or weed control at 500 g/ha in experiment [1] (setting [12]) came to 20%. For the same molecule, the pest or weed control at 250 g/ha was determined as 50% in experiment [2] (setting [8]), 100% in experiment [3] (setting [8]), 0% in experiment [4] (setting [8]) and 0% in experiment [5] (setting [8]).
In the case of `COc1ccc([C@H]2CN(C)C(=O)[C@@H]2C(=O)Nc2cccc(F)c2F)cc1OC` [Compound 853], the pest or weed control at 125 g/ha in experiment [1] (setting [9]) is 0%. Further, the pest or weed control at 250 g/ha is 70% in experiment [2] (setting [10]), 40% in experiment [3] (setting [10]), 20% in experiment [4] (setting [10]) and 0% in experiment [5] (setting [10]).
As for `COc1cc(C(F)(F)F)ccc1[C@H]1CN(C)C(=O)[C@@H]1C(=O)Nc1cccc(F)c1F` [Compound 859], in experiment [1] (setting [9]), the pest or weed control at 125 g/ha was 20%. Moreover, the pest or weed control at 250 g/ha is 65% in experiment [2] (setting [10]), 100% in experiment [3] (setting [10]), 0% in experiment [4] (setting [10]) and 0% in experiment [5] (setting [10]).
Consider `CN1C[C@H](c2csc(C(F)F)c2)[C@@H](C(=O)Nc2ccccc2F)C1=O` [Compound 1123], for which the pest or weed control at 125 g/ha in experiment [1] (setting [6]) turned out to be 60%. For the same molecule, in experiment [1] (setting [7]), the pest or weed control at 500 g/ha is 70%. In addition, the pest or weed control at 250 g/ha in experiment [2] (setting [8]) stood at 70%; in experiment [3] (setting [8]), 100%; in experiment [4] (setting [8]) it was 25%; in experiment [5] (setting [8]) it was 0%.
Regarding `CN1C[C@H](c2cc(F)c(C(F)(F)F)c(F)c2)[C@@H](C(=O)Nc2ccc(F)cc2F)C1=O` [Compound 901], the pest or weed control at 125 g/ha in experiment [1] (setting [9]) was determined as 30%. Also, the pest or weed control at 250 g/ha in experiment [2] (setting [10]) came out at 60%; in experiment [3] (setting [10]), 60%; in experiment [4] (setting [10]), 0%; in experiment [5] (setting [10]) it was 0%.
On to `CC(C)Oc1ccc([C@H]2CNC(=O)[C@@H]2C(=O)Nc2ccc(F)cc2F)cc1` [Compound 1137], for which the pest or weed control at 125 g/ha in experiment [1] (setting [6]) came out at 0%. Further, the pest or weed control at 500 g/ha in experiment [1] (setting [7]) stood at 0%. Further, the pest or weed control at 250 g/ha in experiment [2] (setting [8]), in experiment [3] (setting [8]), in experiment [4] (setting [8]) and in experiment [5] (setting [8]) was 0% throughout.
Take `COc1c(F)ccc([C@H]2CNC(=O)[C@@H]2C(=O)Nc2ccccc2C(F)(F)F)c1Cl` [Compound 891]: the pest or weed control at 125 g/ha in experiment [1] (setting [9]) came out at 0%. The pest or weed control at 250 g/ha was determined as 0% in experiment [2] (setting [10]), 100% in experiment [3] (setting [10]), 20% in experiment [4] (setting [10]) and 0% in experiment [5] (setting [10]).
As for `CSc1ccccc1NC(=O)[C@H]1C(=O)NC[C@@H]1c1cccc2c1OC(F)(F)O2` [Compound 865], the pest or weed control at 125 g/ha in experiment [1] (setting [9]) is 0%. Further, the pest or weed control at 250 g/ha worked out at 0% in experiment [2] (setting [10]), 60% in experiment [3] (setting [10]), 30% in experiment [4] (setting [10]) and 30% in experiment [5] (setting [10]).
On to `Cc1cc(F)cc([C@H]2CNC(=O)[C@@H]2C(=O)Nc2ccc(F)c(F)c2F)c1` [Compound 848], for which, in experiment [1] (setting [9]), the pest or weed control at 125 g/ha came out at 0%. Besides, the pest or weed control at 250 g/ha in experiment [2] (setting [10]) worked out at 60%; in experiment [3] (setting [10]) it was 100%; in experiment [4] (setting [10]) it was 0%; in experiment [5] (setting [10]), 0%.
As for `O=C1NC[C@H](c2ccc(F)c(OC(F)(F)C(F)(F)Br)c2)[C@H]1C(=O)Nc1cccc(F)c1F` (racemic) [Compound 914], the pest or weed control at 125 g/ha in experiment [1] (setting [9]) came out at 70%. Further, the pest or weed control at 250 g/ha in experiment [2] (setting [10]) stood at 0%; in experiment [3] (setting [10]), 50%; in experiment [4] (setting [10]) it was 15%; in experiment [5] (setting [10]) it was 0%.
Consider `CC(C)COc1cccc([C@H]2CN(C)C(=O)[C@@H]2C(=O)Nc2ccc(F)cc2F)c1` [Compound 1030], for which, in experiment [1] (setting [6]), the pest or weed control at 125 g/ha is 0%. Also, the pest or weed control at 500 g/ha in experiment [1] (setting [12]) is 0%. The pest or weed control at 250 g/ha in experiment [2] (setting [8]) is 30%; in experiment [3] (setting [8]), 70%; in experiment [4] (setting [8]), 0%; in experiment [5] (setting [8]) it was 0%.
Turning to `CN1C[C@H](c2ccc(C#N)cc2)[C@@H](C(=O)Nc2cccc(F)c2F)C1=O` [Compound 1208], in experiment [1] (postemergence, visual injury vs untreated controls after approx. 10 d, 0 = no effect, 100 = complete control, read-out: Kochia plant response rating (0 to 100 scale)), the pest or weed control at 125 g/ha was 70%. Besides, in experiment [1] (setting [7]), the pest or weed control at 500 g/ha was found to be 70%. For the same molecule, the pest or weed control at 250 g/ha in experiment [2] (setting [8]) was 45%; in experiment [3] (setting [8]), 95%; in experiment [4] (setting [8]), 15%; in experiment [5] (setting [8]) it was 0%.
`Cc1cc([C@H]2CN(C)C(=O)[C@@H]2C(=O)Nc2ccccc2F)ccc1Br` [Compound 1098]: the pest or weed control at 125 g/ha in experiment [1] (setting [6]) amounted to 20%. In addition, the pest or weed control at 500 g/ha in experiment [1] (setting [7]) amounted to 60%. The pest or weed control at 250 g/ha in experiment [2] (setting [8]) was 0%; in experiment [3] (setting [8]), 90%; in experiment [4] (setting [8]), 0%; in experiment [5] (setting [8]) it was 0%.
